From article PMC3225262, “PeptX: Using Genetic Algorithms to optimize peptides for MHC binding” (BMC Bioinformatics, 2011)
Where no end group is shown, it is not given here.

Target: HLA-A*02:01 (Homo sapiens, UniProt P04439, D140Y/D185E/D98H/E176V/E277Q/G131W/G231S/I119V/I121R/I166T/I218V/L300P/L318F/N151K/N90K/P208A/P217A/Q86G/Q94H/R138H/R169H/T345S)
Assay: experimental peptide/MHC binding assay of the consensus peptides
Settings: consensus peptides optimized for HLA-A*02:01; values below 0.5 nM are beyond the range of sensitivity of the assay; tested by co-operation partner (J. Sidney); read-out: experimental peptide/MHC binding affinity expressed as IC50
Source text: Since a validation on the basis of existing public experimental data was not possible we were able to find a co-operation partner who tested our consensus peptides for experimental peptide/MHC binding affinity.
The authors thank J. Sidney for testing the IC50 binding affinities of the consensus peptides.

| IC50 | Sequence |
| --- | --- |
| 1.1 nM | FLWEVTPTV [FLWEVTPTV] |
| 45 nM | WWWFFWYVW [WWWFFWYVW] |
| < 0.5 nM | YMMEWMWYV [YMMEWMWYV] |

| Sequence | IC50 |
| --- | --- |
| MLWTMVFTV [MLWTMVFTV] | < 0.5 nM |
| YLAEGLASL [YLAEGLASL] | 1.3 nM |
